Assay results: patent publication US9957325B2, “Synthetic antibody mimic peptides” (Formurex, Inc., priority 2015, dated 2018)
Where no end group is shown, it is not given here.

Experiments:
Assay in all cases: Flow cytometry of FITC labeled HER2 mimics
HEK293 cells = type: cell-based, human; conditions: HEK 293, 10 μM, 15 minutes
Procedure: (§1) Flow cytometric studies were carried out to quantify the fluorescence intensity of cells after being incubated with FITC labeled mimics. MDA-MB-361, ZR-75-1 and HEK293 cells were seeded in 6-well culture plates at a density of 3×10^5 cells per well for 24 hours and then incubated with FITC labeled mimics at a concentration of 10 μM in HBSS at 37° C. for 15 minutes. After washing with HBSS twice, cells remaining on the plates were trypsinized with Trpsin-EDTA and centrifuged at 1500 rpm for 5 min. Supernatant was removed and cell pellets were resuspended in 1 ml of HBSS. The suspension was transferred to a FACS Calibur™ flow cytometer and cell fluorescence was measured with high dynamic range photomultipliers with a 530 nm filter. Quantitative changes of fluorescence in different cells samples were assessed by mean fluorescence intensity (MFI), and FACS data were analyzed using BD CellQuest™ Pro software. Paired t-tests were used to determine statistical significance using the GraphPad Prism 5® Software. P-values less than or equal to 0.05 were considered to be statistically significant.

MDA-MB-361 cells = type: cell-based; conditions: MDA-MB-361, 10 μM, 15 minutes
Procedure: as §1

ZR-75-1 cells = type: cell-based; conditions: ZR-75-1, 10 μM, 15 minutes
Procedure: as §1

With “FITC-HER2-PEP22: FITC labeled control peptide HER2-PEP22 (TSPQGYPNDAGFLGRESTN; not fully specified (N-terminus); also: FITC labeled)” the MFI (HEK293 cells) was 14.7±1.7, the MFI (MDA-MB-361 cells) was 22.1±0.5 and the MFI (ZR-75-1 cells) was 19.6±3.2.
